Laboratory results as given in DBAASP.
Converted amounts (≈) assume the structure as drawn. “And” between values parts separate entries of the source, which are not always exact repeats. Equal entries are not always repeated. One block for each compound: values may come before it.

Key:
Experiment in all cases: ≥ marks a high value that may be exact or a test limit, other limits are often not marked, values filed in µg/mL are converted to µM
[1] = test system: Escherichia coli K-12
[2] = test system: Staphylococcus aureus ATCC 25923
[3] = test system: Escherichia coli ATCC 25726
[4] = test system: Acinetobacter baumannii
[5] = test system: Candida albicans ATCC 90028
[6] = test system: Pseudomonas aeruginosa
[7] = test system: Micrococcus luteus CCM 144
[8] = test system: Bacillus subtilis 168
[9] = test system: Escherichia coli B
[10] = test system: Staphylococcus aureus
[11] = test system: Candida albicans F7-39/IDE99
[12] = test system: Pseudomonas aeruginosa ATCC 27853
[13] = test system: Enterococcus faecalis
[14] = test system: Escherichia coli BW25113
[15] = test system: Enterococcus faecium

Compound: CC[C@H](C)[C@H](NC(=O)[C@H](CCCN=C(N)N)NC(=O)[C@H](CCC(N)=O)NC(=O)[C@@H](NC(=O)[C@@H](NC(=O)[C@H](CCC(N)=O)NC(=O)[C@H](C)N)[C@@H](C)CC)C(C)C)C(=O)N[C@@H](CCCCN)C(=O)N[C@@H](CC(=O)O)C(=O)N[C@@H](Cc1ccccc1)C(=O)N[C@@H](CC(C)C)C(=O)N[C@@H](CCCN=C(N)N)C(N)=O [AQIVQRIKDFLR]
MIC [1]: ≥ 240 µM

Compound: CC[C@H](C)[C@H](NC(=O)CN)C(=O)N[C@@H](Cc1c[nH]c2ccccc12)C(=O)N[C@@H](CC(=O)O)C(=O)N[C@H](C(=O)N[C@H](C(=O)N[C@@H](CCCCN)C(=O)N[C@@H](CO)C(=O)N[C@@H](CCSC)C(=O)NCC(=O)N[C@@H](CCCCN)C(=O)N[C@H](C(=O)N[C@@H](Cc1ccccc1)C(=O)N[C@@H](C)C(=O)NCC(=O)N[C@@H](CC(C)C)C(=O)N[C@H](C(=O)N[C@@H](CC(C)C)C(=O)N[C@@H](CCC(N)=O)C(=O)N[C@@H](CC(N)=O)C(=O)N[C@@H](CC(C)C)C(N)=O)[C@@H](C)CC)C(C)C)[C@@H](C)CC)[C@@H](C)O [GIWDTIKSMGKVFAGLILQNL]
MIC [2]: 25 µM (≈ 57.6 µg/mL)
MIC [3]: ≥ 100 µM
MIC [4]: 25 µM (≈ 57.6 µg/mL)
MIC [5]: 12.5 µM (≈ 28.8 µg/mL)

Compound: CC[C@H](C)[C@H](NC(=O)[C@H](CC(C)C)NC(=O)[C@H](CCCCN)NC(=O)[C@@H](NC(=O)[C@@H](NC(=O)[C@H](Cc1cnc[nH]1)NC(=O)[C@@H]1CCCN1C(=O)[C@H](CC(C)C)NC(=O)[C@@H](NC(=O)[C@H](CCCCN)NC(=O)[C@H](C)NC(=O)[C@H](CC(C)C)NC(=O)[C@H](CC(C)C)NC(=O)[C@H](CO)NC(=O)[C@H](C)NC(=O)[C@H](CCSC)NC(=O)CN)C(C)C)C(C)C)C(C)C)C(=O)N[C@@H](CCCCN)C(N)=O [GMASLLAKVLPHVVKLIK]
MIC [6]: 31.7 µM (≈ 60.8 µg/mL)
MIC [7]: 1.7 µM (≈ 3.26 µg/mL)
MIC [8]: 2.5 µM (≈ 4.79 µg/mL)
MIC [9]: 3.7 µM (≈ 7.09 µg/mL)
MIC [10]: 3.7 µM (≈ 7.09 µg/mL)
MIC [11]: 25 µM (≈ 47.9 µg/mL)

Compound: CC[C@H](C)[C@H](N)C(=O)NCC(=O)N[C@@H](CC(C)C)C(=O)N[C@@H](CCCN=C(N)N)C(=O)NCC(=O)N[C@@H](CC(C)C)C(=O)NCC(=O)N[C@@H](CCCN=C(N)N)C(=O)N[C@@H](CCCCN)C(=O)N[C@H](C(=O)N[C@@H](C)C(=O)N[C@@H](CC(C)C)C(=O)N[C@H](C(=O)N[C@@H](Cc1cnc[nH]1)C(=O)N[C@@H](CCCCN)C(=O)N[C@@H](CCCCN)C(=O)N[C@@H](Cc1ccc(O)cc1)C(=O)NCC(=O)O)[C@@H](C)CC)[C@@H](C)CC [IGLRGLGRKIALIHKKYG]
MIC [1]: ≥ 120 µM
MIC [8]: ≥ 120 µM

Compound: CC[C@H](C)[C@H](NC(=O)[C@H](CCCCN)NC(=O)CNC(=O)[C@H](Cc1c[nH]c2ccccc12)NC(=O)[C@H](CC(N)=O)NC(=O)[C@@H](N)CCCCN)C(=O)N[C@@H](CC(C)C)C(=O)N[C@@H](CCCCN)C(=O)N[C@@H](Cc1cnc[nH]1)C(=O)N[C@H](C(=O)N[C@H](C(=O)N[C@@H](CCCCN)C(N)=O)[C@@H](C)CC)[C@@H](C)CC [KNWGKILKHIIK]
MIC [6]: 31.7 µM (≈ 46.8 µg/mL)
MIC [7]: 4.5 µM (≈ 6.65 µg/mL)
MIC [8]: 5.8 µM (≈ 8.57 µg/mL)
MIC [9]: 11.3 µM (≈ 16.7 µg/mL)
MIC [10]: 76.7 µM (≈ 113 µg/mL)
MIC [11]: 7.7 µM (≈ 11.4 µg/mL)

Compound: CC[C@H](C)[C@@H]1NC(=O)[C@H](CCCCN)NC(=O)[C@H](CCCCN)NC(=O)[C@@H]2CSSC[C@H](NC(=O)[C@H](C)NC(=O)[C@H](C(C)C)NC(=O)[C@@H](NC(=O)[C@@H](NC(=O)[C@@H](NC(=O)[C@H](CCCCN)NC(=O)[C@H](CCCCN)NC(=O)[C@@H](NC(=O)[C@H](CC(=O)O)NC(=O)[C@@H](N)CC(C)C)C(C)C)[C@@H](C)CC)[C@@H](C)CC)CSSC[C@@H](C(=O)N3CCC[C@H]3C(=O)N[C@@H](CCCCN)C(=O)O)NC1=O)C(=O)N[C@@H](CCCCN)C(=O)N[C@@H]([C@@H](C)CC)C(=O)N[C@@H](CCCN=C(N)N)C(=O)N1CCC[C@H]1C(=O)N[C@@H](CC(N)=O)C(=O)N1CCC[C@H]1C(=O)N[C@@H](C)C(=O)N2 [LDVKKIICVACKIRPNPACKKICPK]
MIC [6]: > 100 µM
MIC [7]: 0.8 µM (≈ 2.22 µg/mL)
MIC [8]: 1.5 µM (≈ 4.17 µg/mL)
MIC [9]: ≥ 32.5 µM
MIC [10]: > 100 µM
MIC [11]: 18.7 µM (≈ 52 µg/mL)

Results, then the compound that gave them:

MIC [6]: 10.1 µM (≈ 16 µg/mL)
MIC [12]: 40.5 µM and > 20.2 µM
MIC [4]: 5.06 µM (≈ 8 µg/mL)
MIC [13]: 7.59 µM (≈ 12 µg/mL)
MIC [10]: 15.2 µM (≈ 24 µg/mL)
Compound: CC[C@H](C)[C@H](NC(=O)[C@H](C)NC(=O)[C@H](CCCCN)NC(=O)[C@H](CC(C)C)NC(=O)[C@H](CCCCN)NC(=O)[C@@H](N)CC(C)C)C(=O)N[C@@H](C)C(=O)N[C@@H](C)C(=O)N[C@@H](CC(C)C)C(=O)N[C@@H](C)C(=O)N[C@@H](CCCCN)C(=O)N[C@@H](CCCCN)C(=O)N[C@@H](CCCCN)C(=O)N[C@@H](Cc1c[nH]c2ccccc12)C(N)=O [LKLKAIAALAKKKW]

MIC [14]: 4 µM (≈ 8.89 µg/mL)
Compound: CC[C@H](C)[C@H](NC(=O)[C@@H]1CCCN1C(=O)[C@H](CCCN=C(N)N)NC(=O)[C@H](CCCN=C(N)N)NC(=O)[C@H](Cc1ccccc1)NC(=O)[C@@H](N)CCCN=C(N)N)C(=O)N[C@@H](CCCN=C(N)N)C(=O)N[C@@H](CCCN=C(N)N)C(=O)N1CCC[C@H]1C(=O)N1CCC[C@H]1C(=O)N[C@H](C(=O)N[C@@H](CCCN=C(N)N)C(=O)N1CCC[C@H]1C(=O)N1CCC[C@H]1C(=O)N[C@@H](Cc1ccccc1)C(=O)N[C@@H](Cc1ccc(O)cc1)C(=O)N1CCC[C@H]1C(=O)O)[C@@H](C)CC [RFRRPIRRPPIRPPFYP]

MIC [14]: 8 µM (≈ 19 µg/mL)
Compound: CC[C@H](C)[C@H](NC(=O)[C@@H]1CCCN1C(=O)[C@H](Cc1c[nH]c2ccccc12)NC(=O)[C@H](CCCN=C(N)N)NC(=O)[C@H](Cc1ccccc1)NC(=O)[C@@H](N)CCCN=C(N)N)C(=O)N[C@@H](CCCN=C(N)N)C(=O)N[C@@H](CCCN=C(N)N)C(=O)N[C@@H](CCCN=C(N)N)C(=O)N1CCC[C@H]1C(=O)N[C@H](C(=O)N[C@@H](CCCN=C(N)N)C(=O)N1CCC[C@H]1C(=O)N1CCC[C@H]1C(=O)N[C@@H](Cc1ccccc1)C(=O)N[C@@H](Cc1ccc(O)cc1)C(=O)N[C@@H](CCCN=C(N)N)C(=O)O)[C@@H](C)CC [RFRWPIRRRPIRPPFYR]

MIC [15]: 23.5 µM (≈ 35.4 µg/mL)
MIC [13]: 23.5 µM (≈ 35.4 µg/mL)
Compound: CC(C)C[C@H](NC(=O)[C@H](CC(C)C)NC(=O)[C@H](CC(C)C)NC(=O)[C@H](CC(C)C)NC(=O)[C@H](CC(C)C)NC(=O)[C@H](CCCN=C(N)N)NC(=O)[C@H](Cc1c[nH]c2ccccc12)NC(=O)[C@@H](N)CCCN=C(N)N)C(=O)N[C@@H](CCCCN)C(=O)N[C@@H](CCCN=C(N)N)C(=O)N[C@@H](Cc1cnc[nH]1)C(=O)O [RWRLLLLLKRH]

MIC [14]: 8 µM (≈ 19.6 µg/mL)
Compound: CC[C@H](C)[C@H](NC(=O)[C@@H]1CCCN1C(=O)[C@H](CCCN=C(N)N)NC(=O)[C@H](CCCN=C(N)N)NC(=O)[C@H](CCCN=C(N)N)NC(=O)[C@H](Cc1c[nH]c2ccccc12)NC(=O)[C@@H]1CCCN1C(=O)[C@H](CCCN=C(N)N)NC(=O)[C@H](CCCN=C(N)N)NC(=O)[C@H](Cc1c[nH]c2ccccc12)NC(=O)[C@@H](N)CCCN=C(N)N)C(=O)N[C@@H](CCCN=C(N)N)C(=O)N1CCC[C@H]1C(=O)N1CCC[C@H]1C(=O)N[C@@H](Cc1ccccc1)C(=O)N[C@@H](Cc1ccc(O)cc1)C(=O)N[C@@H](CCCN=C(N)N)C(=O)O [RWRRPWRRRPIRPPFYR]

MIC [14]: 4 µM (≈ 9.73 µg/mL)
Compound: CC[C@H](C)[C@H](NC(=O)[C@@H]1CCCN1C(=O)[C@H](Cc1c[nH]c2ccccc12)NC(=O)[C@H](CCCN=C(N)N)NC(=O)[C@H](Cc1c[nH]c2ccccc12)NC(=O)[C@@H](N)CCCN=C(N)N)C(=O)N[C@@H](CCCN=C(N)N)C(=O)N[C@@H](CCCN=C(N)N)C(=O)N[C@@H](CCCN=C(N)N)C(=O)N1CCC[C@H]1C(=O)N[C@H](C(=O)N[C@@H](CCCN=C(N)N)C(=O)N1CCC[C@H]1C(=O)N1CCC[C@H]1C(=O)N[C@@H](Cc1ccccc1)C(=O)N[C@@H](Cc1c[nH]c2ccccc12)C(=O)N[C@@H](CCCN=C(N)N)C(=O)O)[C@@H](C)CC [RWRWPIRRRPIRPPFWR]
